Experiments:
[1] = system: Salmonella enterica (food isolate); test: Broth microdilution MIC; type: cell-based; settings: read-out: Minimum Inhibitory Concentrations (MIC)
[2] = system: Staphylococcus aureus Clinical/MRSA; test: Broth microdilution MIC; type: cell-based; settings: Staphylococcus aureus, MRSA, read-out: Minimum Inhibitory Concentrations (MIC)
[3] = system: RPE1 cells; test: Cytotoxicity MTS assay; type: cell-based, human; settings: Homo sapiens, RPE-1, 48 h, read-out: IC50 RPE1
Procedure: (§1) The cytotoxic potential of the selected drug candidates was evaluated using the CellTiter 96® AQueous One Solution Cell Proliferation Assay (Promega, Madison, WI, USA), following the manufacturer’s protocol. Human cell lines RPE1 and HEK293 were cultured at 37 °C in a humidified incubator with 5% CO2. Test compounds were dissolved in the appropriate growth medium and serially diluted across a range of concentrations in 96-well microtiter plates. Each well was seeded with 5000 cells and incubated for 48 h under standard culture conditions. Following this incubation period, 20 µL of MTS reagent was added to each well, and the plates were further incubated for 3 h to allow for color development. Absorbance was measured at 490 nm using a microplate reader to determine cell viability. Cytotoxicity was quantified as the half-maximal inhibitory concentration (IC50), defined as the concentration of compound that reduced cell viability by 50%. […] IC50 values were calculated using GraFit 6.0 software by plotting compound concentration against absorbance and fitting the data to a sigmoidal dose–response curve.

[4] = system: HEK293 cells; test: Cytotoxicity MTS assay; type: cell-based, human; settings: Homo sapiens, HEK293, 48 h, read-out: IC50 HEK293
Procedure: as §1

[5] = system: Escherichia coli ATCC 25922; test: Broth microdilution MIC; type: cell-based; settings: Escherichia coli, ATCC25922, read-out: Minimum Inhibitory Concentrations (MIC)
[6] = system: Staphylococcus aureus ATCC 25923; test: Time-resolved growth kinetics; type: cell-based; settings: subinhibitory concentrations, relative to 2(QC16)3 and 2(QC16)6
Procedure: (§2) The antimicrobial activity of the candidate compounds against Staphylococcus aureus ATCC 25923 and Listeria monocytogenes ATCC 7644 was further evaluated using a time-resolved growth kinetics assay in 96-well microtiter plates. Overnight bacterial cultures were diluted in fresh, pre-warmed Mueller–Hinton broth (MHB) and incubated at 37 °C with orbital shaking at 220 rpm. Upon reaching the exponential growth phase (OD600 = 0.3–0.5), cultures were standardized to a final concentration of 5 × 10^4 CFU/mL. Aliquots (50 µL) of the standardized inoculum were dispensed into wells containing either no antimicrobial agent (negative control) or the test compounds at concentrations corresponding to ½ MIC and MIC. Bacterial growth was continuously monitored over a 24 h period by measuring absorbance at 595 nm every 10 min using a Bio-Tek EL808 microplate reader (Winooski, VT, USA). Growth kinetics were assessed by comparing the optical density profiles of treated samples against the untreated control. Each experiment was performed independently twice, with all conditions tested in triplicate. Data are presented as the mean values of these replicates.

[7] = system: Staphylococcus aureus ATCC 33591 (methicillin-resistant); test: Broth microdilution MIC; type: cell-based; settings: Staphylococcus aureus, ATCC33591, read-out: Minimum Inhibitory Concentrations (MIC)
[8] = system: Bacillus cereus ATCC 14579; test: Broth microdilution MIC; type: cell-based; settings: ATCC14579, read-out: Minimum Inhibitory Concentrations (MIC), Bacillus cereus ATCC 14579
[9] = system: Staphylococcus aureus ATCC 25923; test: Biofilm inhibition assay (crystal violet); type: cell-based
Procedure: (§3) The ability of the candidate compounds to inhibit biofilm formation was evaluated by determining the minimum biofilm inhibitory concentration (MBIC) against the biofilm-forming strains Staphylococcus aureus ATCC 25923 and Listeria monocytogenes ATCC 7644. Overnight bacterial cultures were diluted in fresh, pre-warmed Mueller–Hinton broth (MHB) and incubated at 37 °C with constant shaking at 220 rpm. Once the cultures reached the exponential growth phase (OD600 = 0.3–0.5), they were standardized to a final concentration of 4 × 10^6 CFU/mL.
(§4) Plates were incubated at 37 °C for 24 to 48 h, depending on the bacterial strain. After incubation, the planktonic cells were carefully aspirated to preserve the integrity of the biofilm layer. Wells were gently rinsed with sterile ultrapure Milli-Q water and air-dried at 60 °C for 1 h to fix the biofilms. Biofilm formation was quantified using a crystal violet (CV) staining method. Wells were stained with 100 µL of 0.1% CV solution and incubated at room temperature for 1 h. Excess dye was removed by rinsing with sterile ultrapure Milli-Q water, followed by air-drying. Bound CV was solubilized with 100 µL of 70% ethanol and incubated for 30 min. The solubilized dye was transferred to a fresh plate, and absorbance was measured at 595 nm using a microplate reader (Bio-Tek EL808, Winooski, VT, USA). Absorbance values were directly proportional to biofilm biomass. Untreated bacterial cultures served as positive controls for biofilm formation, while sterile MHB served as the negative control.

[10] = system: Enterococcus faecalis ATCC 29212; test: Broth microdilution MIC; type: cell-based; settings: Enterococcus faecalis, ATCC29212, read-out: Minimum Inhibitory Concentrations (MIC), Enterococcus faecalis ATCC 29212
[11] = system: Staphylococcus aureus ATCC 25923; test: Broth microdilution MIC; type: cell-based; settings: Staphylococcus aureus, ATCC25923, read-out: Minimum Inhibitory Concentrations (MIC)
[12] = system: Staphylococcus aureus ATCC 25923; test: Time-kill kinetics assay; type: cell-based
Procedure: To assess the temporal dynamics of bacterial viability upon exposure to the test compounds, a time-kill kinetics assay was performed using the Gram-positive reference strain Staphylococcus aureus ATCC 25923. An overnight culture of the strain was subcultured into fresh, pre-warmed Mueller–Hinton broth (MHB) and incubated under aerobic conditions at 37 °C with agitation (220 rpm) until reaching the early exponential growth phase. The bacterial suspension was then standardized to an initial concentration of approximately 5 × 10^5 CFU/mL. […] Wells containing untreated bacterial cultures served as growth controls. Immediately after mixing, a 10 µL sample from each well was withdrawn, diluted in 990 µL of MHB, and serially diluted tenfold up to 10^−6. From each dilution, 20 µL was plated on MHB agar using a sterile loop to determine the initial bacterial count (time zero). The treated plates were incubated at 37 °C, and additional samples were collected at predetermined time points (2, 4, 6, 8, 12, and 24 h) following the same dilution and plating protocol. After 24 h of incubation at 37 °C, colonies were counted, and viable bacterial counts were expressed as log10 CFU/mL for each time point. Bactericidal activity was evaluated by plotting the log10 CFU/mL over time, providing a dynamic profile of the compound’s killing kinetics.

[13] = system: Listeria monocytogenes ATCC 7644; test: Broth microdilution MIC; type: cell-based; settings: Listeria monocytogenes, ATCC7644, read-out: Minimum Inhibitory Concentrations (MIC), Listeria monocytogenes ATCC 7644
[14] = system: Pseudomonas aeruginosa ATCC 27853; test: Broth microdilution MIC; type: cell-based; settings: Pseudomonas aeruginosa, ATCC27853, read-out: Minimum Inhibitory Concentrations (MIC)
[15] = system: Listeria monocytogenes ATCC 7644; test: Time-resolved growth kinetics; type: cell-based; settings: MIC and ½ MIC
Procedure: as §2

[16] = system: Listeria monocytogenes ATCC 7644; test: Biofilm inhibition assay (crystal violet); type: cell-based; settings: Listeria monocytogenes, ATCC7644, read-out: biofilm inhibition
Procedure: as §3
as §4, with “Aliquots (50 µL) of the standardized bacterial suspension were inoculated into 96-well microtiter plates containing the test compounds at final concentrations of 100, 50, 25, and 12.5 µg/mL. Plates” for “Plates”

SMILES | MIC [1] [µM] | MIC [2] [µM] | IC50 [3] [µM] | IC50 [4] [µM] | MIC [5] [µM] | MIC [7] [µM] | MIC [8] [µM] | MIC [10] [µM] | MIC [11] [µM] | MIC [13] [µM] | MIC [14] [µM] | further results
CCCCCCCCCCCCCCNC1C[N+]2(CCCCCC[N+]34CCC(CC3)C(NCCCCCCCCCCCCCC)C4)CCC1CC2 (racemic) [2(QC14)6, (±)-1,1′-(Hexane-1,6-diyl) bis(3-(tetradecylamino)quinuclidinium) dibromide] | 75 | 75 | 61 | 42 | 19 | 19 | 75 | 38 | 38 | 19 | > 75 | growth curve slope in exponential phase [6]: shallower growth curve slope; biofilm inhibition ([9]; S. aureus ATCC 25923, 6.25 µg/mL): 13%; biofilm inhibition ([9]; S. aureus ATCC 25923, 12.5 µg/mL): 15%; biofilm inhibition ([9]; S. aureus ATCC 25923, 25 µg/mL): 34%; biofilm inhibition ([9]; S. aureus ATCC 25923, 50 µg/mL): remained effective; biofilm inhibition ([9]; S. aureus ATCC 25923, 100 µg/mL): > 90%; time to rapid bactericidal activity ([12]; S. aureus ATCC 25923): ≤ 3 h; time to complete killing ([12]; S. aureus ATCC 25923, 2 × MIC): 2 h
CCCCCCCCCCCCCCCCNC1C[N+]2(CCCC[N+]34CCC(CC3)C(NCCCCCCCCCCCCCCCC)C4)CCC1CC2 (racemic) [2(QC16)4, (±)-1,1′-(Butane-1,4-diyl) bis(3-(hexadecylamino)quinuclidinium) dibromide] | 75 | 75 | 34 | 25 | 19 | 9 | > 75 | 38 | 75 | 9 | > 75 | effect on bacterial growth [15]: pronounced inhibitory effect; inhibition at 6.25 µg/mL [16]: > 50%; inhibition at 12.5 µg/mL [16]: > 70%; inhibition at 25 µg/mL [16]: > 90%; inhibition at 50 µg/mL [16]: > 90%; inhibition at 100 µg/mL [16]: 92%
